From patent publication EP4520333A1, “SYK INHIBITORS FOR USE IN THE TREATMENT OF IMMUNE CHECKPOINT INHIBITION INDUCED ADVERSE EVENTS” (Albert-Ludwigs-Universität Freiburg, priority 2023, dated 2025)

Tests used:
mice [1] = assay: Elevated plus maze test; type: in vivo; conditions: melanoma bearing mice, anti-PD-1 plus Syk inhibitor vs anti-PD-1 plus vehicle (Fig. 7L day 17; Fig. 33A)
Text: (§1) The invention is further described by the following figures. These are not intended to limit the scope of the invention but represent preferred embodiments of aspects of the invention provided for greater illustration of the invention described herein. • Figure 1: Microglia show signs of activation upon anti-PD-1 treatment in the absence of tumor. (A-C) Histology of brain samples immunostained for Iba-1^+ cells from the cortex of mice treated with anti-PD-1 or isotype control on day 22 after treatment. (A) Representative images from each group are shown. Scale bars, 50µm. The scatter plots show the number of Iba-1^+ cells (per mm^2) in cortex (B) and hippocampus (C). The results (mean ± s.e.m.) were combined. […] The P-values were calculated using the unpaired student's t-test. […] (E-H) Scatter plots showing Imaris-based automated quantification of microglial morphology from microglia the cortex of mice treated with anti-PD-1 or isotype control on day 22 after treatment. […] The P-values were calculated using the unpaired student's t-test. • Figure 2: Anti-PD-1 treatment causes neurocognitive deficits and increased CSF-1R and MHC-II expression on microglia. […] (C-D) The scatter plot (C) and representative histogram (D) show the quantification (fold change of MFI) of CSF-1R (CD115) on microglia (CD45^lo CD11b^+) isolated from the CNS of mice treated with anti-PD-1 or isotype control on day 22. […]

[2] = test system: cells isolated from BM and spleen; assay: Flow cytometry of peripheral immune cells from BM and spleen of melanoma-bearing mice; type: in vivo
Text: (§2) The invention is further described by the following figures. These are not intended to limit the scope of the invention but represent preferred embodiments of aspects of the invention provided for greater illustration of the invention described herein. • Figure 1: Microglia show signs of activation upon anti-PD-1 treatment in the absence of tumor. (A-C) Histology of brain samples immunostained for Iba-1^+ cells from the cortex of mice treated with anti-PD-1 or isotype control on day 22 after treatment. (A) Representative images from each group are shown. Scale bars, 50µm. The scatter plots show the number of Iba-1^+ cells (per mm^2) in cortex (B) and hippocampus (C). The results (mean ± s.e.m.) were combined. The experiment was performed three times. The P-values were calculated using the unpaired student's t-test. (D) Representative images showing Imaris (Bitplane)-based 3D-reconstruction of Iba-1^+ microglia from the cortex of mice treated with anti-PD-1 or isotype control as indicated. Scale bar: 10µm. (E-H) Scatter plots showing Imaris-based automated quantification of microglial morphology from microglia the cortex of mice treated with anti-PD-1 or isotype control on day 22 after treatment. […] The P-values were calculated using the unpaired student's t-test. • Figure 2: Anti-PD-1 treatment causes neurocognitive deficits and increased CSF-1R and MHC-II expression on microglia. (A-B) Representative immunofluorescence images and scatter plot depicting the quantification of the ratio of extravascular versus intravascular FITC-dextran indicative of BBB leakage via extravasation of FITC-dextran in the cortex of either untreated, isotype-treated, or anti-PD-1-treated mice. […] (C-D) The scatter plot (C) and representative histogram (D) show the quantification (fold change of MFI) of CSF-1R (CD115) on microglia (CD45^lo CD11b^+) isolated from the CNS of mice treated with anti-PD-1 or isotype control on day 22. […] The P-values were calculated using the student's t-test (B, C, E, K-M) and paired samples Wilcoxon test (G, I). […] The P-values were calculated using the unpaired student's t-test. […]

mice [3] = assay: Novel object recognition test; type: in vivo
Text: as §2

mice [4] = assay: Grip strength test; type: in vivo; conditions: melanoma bearing mice
Text: as §1

[5] = test system: microglia (CD45lo CD11b+); assay: Flow cytometry of microglia / CD11b+ cells isolated from the CNS of mice; type: in vivo; conditions: melanoma bearing mice on CSF-1R inhibitor diet vs control diet (Fig. 6, Fig. 14)
Text: as §1

lymphoma cells = conditions: reference (45); cited from earlier work
B-cell lymphomas = conditions: in vitro; cited from earlier work

Compound: COc1cc(Nc2ncc(F)c(Nc3ccc4c(n3)N(COP(=O)(O)O)C(=O)C(C)(C)O4)n2)cc(OC)c1OC [Fostamatinib]
- entries into open arms (exploratory) (mice [1]): reproducible
- peripheral myeloid compartment (CD45+, F4/80+ cells in BM and spleen) ([2]; anti-PD-1/isotype and second Syk inhibitor/vehicle (Fig. 33D-G)): No changes
- CD3+ T cells in the BM and spleen ([2]; anti-PD-1/isotype and second Syk inhibitor/vehicle (Fig. 33H and I)): expansion
- time spent exploring a novel object with respect to the total time (memory) (mice [3]; melanoma bearing mice, anti-PD-1 plus Syk inhibitor vs anti-PD-1 plus vehicle (Fig. 7K day 17; Fig. 33B)): reproducible
- grip strength normalized to body weight (mice [4]; anti-PD-1 plus Syk inhibitor or vehicle (Fig. 7M day 17; Fig. 33C)): reproducible

Compound: COc1ncc(F)cc1CNc1ccc(Cc2c[nH]c3ncc(C)cc23)c(F)n1 [PLX5622]
- frequencies of CD45, CD11b, Ly6C and CD11c populations in the BM and spleen ([2]; CSF-1R inhibitor diet day -7 to day 23): did not alter
- neurocognitive function in novel object recognition test, anti-PD-1 treated mice (mice [3]; melanoma bearing mice treated with anti-PD-1 plus depleting agent or its control, day 23 (Fig. 6B, F, J, M, O)): improved
- neurocognitive function in novel object recognition test, isotype treated mice (mice [3]; melanoma bearing mice treated with isotype antibody plus depleting agent or its control, day 23 (Fig. 6A, E)): did not develop neurocognitive deficits
- CSF-1R positive cells (CD11b+ and CD11b+CD45lo cells in the CNS) [5]: depletion
- grip strength normalized to body weight (mice [4]; isotype or anti-PD-1 plus depleting agent or its control, day 23 (Fig. 6C, D, G, H)): intact

Compound: Cn1cc(-c2nc(N[C@@H]3CCCC[C@@H]3N)c(F)c3c2C(=O)NC3)cn1 [TAK-659]
- pro-survival, proliferative, chemoresistant, and activation effects promoted by the microenvironment (lymphoma cells): impair

Compound: CCS(=O)(=O)N1CCN(c2ccc(Nc3ncc(C(N)=O)c(NC4CC4)n3)cc2)CC1 [Cerdulatinib]
- activity against B-cell lymphomas (B-cell lymphomas): in vitro activity
